Assay results reported in patent US20230416258A1, “BENZ[…], AND PREPARATION METHOD THEREFOR AND USE THEREOF” (CHINA PHARMACEUTICAL UNIVERSITY, priority 2020, published 2023).

Tested on: KM mice
Assay: Test for drug-induced disappearance of righting reflex in mice
Format: in vivo
Settings: single rapid bolus via tail vein
Method in brief: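 Female KM mice (18–25 g), randomly grouped, given a single rapid bolus via tail vein. Latency (administration to loss of righting reflex) and duration (loss to recovery) recorded.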

SMILES	Duration (60 mg/kg)	Latency (60 mg/kg)	Duration (30 mg/kg)	Latency (30 mg/kg)	Duration (15 mg/kg)	Latency (15 mg/kg)
COC(=O)CC[C@@H]1N=C(c2ccccc2)c2cc(Cl)ccc2-n2c(SCCCN(C)C)nnc21 [Compound 108, methyl (S)-3-(8-chloro-1-((3-(dimethylamino)propyl)thio)-6-phenyl-4H-benzo[f][1,2,4]triazolo[4,3-a][1,4]diazepin-4-yl)propionate]	11.73 min	0.59 min	–	–	–	–
COC(=O)CC[C@@H]1N=C(c2ccccc2)c2cc(Br)ccc2-n2c(SCCCN(C)C)nnc21 [Compound 109, methyl (S)-3-(8-bromo-1-((3-(dimethylamino)propyl)thio)-6-phenyl-4H-benzo[f][1,2,4]triazolo[4,3-a][1,4]diazepin-4-yl)propionate]	13.27 min	0.97 min	–	–	–	–
COC(=O)CC[C@@H]1N=C(c2ccccc2)c2cc([N+](=O)[O-])ccc2-n2c(SCCCN(C)C)nnc21 [Compound 110, methyl (S)-3-(8-nitro-1-((3-(dimethylamino)propyl)thio)-6-phenyl-4H-benzo[f][1,2,4]triazolo[4,3-a][1,4]diazepin-4-yl)propionate]	15.27 min	0.21 min	10.16 min	0.22 min	–	–
COC(=O)CC[C@@H]1N=C(c2ccccc2Cl)c2cc(Cl)ccc2-n2c(SCOP(=O)(O)O)nnc21 [Compound 111, methyl (S)-3-(8-chloro-6-(2-chlorophenyl)-1-(((phosphonooxy)methyl)thio)-4H-benzo[f][1,2,4]triazolo[4,3-a][1,4]diazepin-4-yl)propionate]	–	–	18.36 min	0.67 min	–	–
COC(=O)CC[C@@H]1N=C(c2ccccc2Cl)c2cc(Br)ccc2-n2c(SCOP(=O)(O)O)nnc21 [Compound 112, methyl (S)-3-(8-bromo-6-(2-chlorophenyl)-1-(((phosphonooxy)methyl)thio)-4H-benzo[f][1,2,4]triazolo[4,3-a][1,4]diazepin-4-yl)propionate]	12.62 min	0.46 min	19.21 min	0.78 min	–	–
COC(=O)CC[C@@H]1N=C(c2ccccc2Cl)c2cc([N+](=O)[O-])ccc2-n2c(SCOP(=O)(O)O)nnc21 [Compound 113, methyl (S)-3-(8-nitro-6-(2-chlorophenyl)-1-(((phosphonooxy)methyl)thio)-4H-benzo[f][1,2,4]triazolo[4,3-a][1,4]diazepin-4-yl)propionate]	9.49 min	0.58 min	–	–	–	–
COC(=O)CC[C@@H]1N=C(c2ccccn2)c2cc(Br)ccc2-n2c(SC)nnc21 [Compound 114, methyl (S)-3-(8-bromo-6-(pyridin-2-yl)-1-methylthio-4H-benzo[f][1,2,4]triazolo[4,3-a][1,4]diazepin-4-yl)propionate]	–	–	20.32 min	0.41 min	–	–
CCSc1nnc2n1-c1ccc(Br)cc1C(c1ccccn1)=N[C@H]2CCC(=O)OC [Compound 115, methyl (S)-3-(8-bromo-6-(pyridin-2-yl)-1-ethylthio-4H-benzo[f][1,2,4]triazolo[4,3-a][1,4]diazepin-4-yl)propionate]	–	–	5.02 min	0.13 min	1.26 min	0.18 min
COC(=O)CC[C@@H]1N=C(c2ccccn2)c2cc(Br)ccc2-n2c(SCC3CC3)nnc21 [Compound 116, methyl (S)-3-(8-bromo-6-(pyridin-2-yl)-1-((cyclopropylmethyl)thio)-4H-benzo[f][1,2,4]triazolo[4,3-a][1,4]diazepin-4-yl)propionate]	–	–	10.89 min	0.11 min	–	–
COC(=O)CC[C@@H]1N=C(c2ccccn2)c2cc(Br)ccc2-n2c(SCCN3CCOCC3)nnc21 [Compound 117, methyl (S)-3-(8-bromo-6-(pyridin-2-yl)-1-((2-morpholinoethyl)thio)-4H-benzo[f][1,2,4]triazolo[4,3-a][1,4]diazepin-4-yl)propionate]	–	–	2.03 min	0.14 min	–	–
